Source: patent US5504244A, “Alkylarylketo acids” (Boehringer Ingelheim Pharmaceuticals, Inc., priority 1993, dated 1996)
Where two headings read alike, the source gives them in different places.

Assays:
Type in all cases: cell-based
[1] = tested on: guinea pig ileal strips; test: Modified Schultz-Dale Assay: inhibition of antigen-induced anaphylactic contraction of passively sensitized ileal strips; conditions: Cavia porcellus, **tested at 20 μg/ml
[2] = tested on: guinea pig ileal strips; test: as above; conditions: Cavia porcellus; for IC50: value in parentheses
Method: In the classic Schultz-Dale assay, guinea pigs are sensitized with a known immunogen or passively sensitized with guinea pig antiserum to the immunogen, strips of ilea are recovered, and the extent of their contraction in response to a challenge exposure to the same antigen is observed as a measure of anaphylactic response. The experiments described here follow this same procedure while exposing the ileal strips to test compound before exposure to antigen challenge (preincubation) and, in some strips, also after antigen challenge (postincubation).
The male Hartley strain guinea pigs (450-650 g) whose ilea are used in this Schultz-Dale assay are passively sensitized with IgE antiovalbumin antiserum as follows. The antiserum is developed in another group of similar guinea pigs as described in Graziano, et al., J. Immunol. 127:1067-1070 (1981) and pooled. The test animals are then each passively sensitized by subcutaneous injection of the pooled antiserum (1 ml).
About 2-7 days after sensitization, the guinea pigs are sacrificed and the terminal ilea are removed. They are cut into strips (6 cm) and positioned in tissue baths (5 ml) of Tyrode's solution with atropine (1 μg/ml) at 37° C. One end of each strip is fixed to an immobile post and the other movably mounted to a Grass Ft. 0.03 linear force displacement transducer and a Grass Model 7 polygraph. The tension is set (at 1 gram) and the tissue is allowed to equilibrate (10 minutes). Tissue viability is tested by establishing a consistent response to histamine (0.5 μg/ml). After several histamine-induced contractions, mepyramine (1 μg/ml) is added to inhibit any contractions due to the anaphylactic release of endogenous histamine.
A minimum of 3 animals are used for each compound tested and, of the 6 strips from each animal, 2 strips are incubated (preincubation) with a test compound (final concentration 75 μM), 2 with an appropriate reference standard (BW-755C at 75 μM) and 2 with saline solution (control) for a predetermined period (5 minutes). After this initial incubation period, ovalbumin (100 μg/ml) is added to each bath and the resulting anaphylactic contraction measured. The data are recorded as of tension produced by the tissue in excess of the 1 gram tension that was initially set. At the peak of the contraction, a dose of the same test compound (75 μM) is added (postincubation) to one control strip and reference standard (FPL-55712 at 1.9 μM). The strips are monitored (1 minute) and any effect on the established contraction is recorded as described above.
Two types of data are derived from the above protocol. First, pre-antigen inhibition (prechallenge) is expressed as the percent inhibition in each of the strips preincubated with test compound measured against the averaged contractions of the two control strips. Prechallenge inhibition by the reference standard is also determined in each experiment as a positive control. The reference used consistently gives 60-80% inhibition. Second, post-antigen inhibition (postchallenge) is determined by measuring the decrease in anaphylactic contraction of a control strip produced by adding either a test compound or standard at the peak of the contraction. The reference used consistently gives 70-90% inhibition. The data in each experiment, therefore, consists of 2 prechallenge and 1 postchallenge value for both test compound and standard.

[3] = tested on: 5-HETE biosynthesized by glycogen-stimulated polymorphonuclear leucocytes (PMNs); test: Hydroxyacid Profile Assay (HPA): inhibition of 5-HETE synthesis in glycogen-elicited rabbit PMNs; conditions: Oryctolagus cuniculus, Leucocyte; for inhibition at 100 µM: read-out: Percent Inhibition (100 μM); for IC50: read-out: IC50 (50% inhibition of 5-HETE synthesis)
Method: As previously noted 5-HETE biosynthesis serves as a marker for arachidonic acid metabolism via the 5-lipoxygenase pathway which produces (poly)hydroxyeicosatetraenoic acids and the potent bronchoconstrictor and vasoactive leukotrienes LTC4, LTD4 and LTE4.
Buffer A (8.70 g NaCl; 0.27 g KCl; 0.42 g Na2 HPO4; 0.76 g KH2 PO4; and 1.00 g dextrose per liter H2 O; pH 7.0) (0.325 ml) is introduced into each of a battery of screwtop culture tubes. Then, a solution of a compound (0.100 ml) to be assayed is dispensed into individual tubes. Assays are performed in duplicate at 100 μM and 10 μM concentrations. Control tubes receive Buffer A (0 100 ml) in lieu of compound. Next, rabbit PMNs (2×10^7 cells/tube; 4×10^7cells/ml) (0.500 ml) are added to each tube. The rabbit PMN's used are elicited with glycogen and made into a preparation substantially as described by F. Hirata. et al (1979) Proc. Natl. Acad. Sci. USA, 76, 2640-2643. The tubes are vortexed and preincubated in a shaking 37° C. water bath for 15 minutes.
Thereafter, the tubes are removed from the water bath and calcium ionophore solution (400 μg/ml A-23187; Sigma Chemical Co., St. Louis, Mo.) (0.025 ml), ^14 C-arachidonic acid (0.25 μCi in 0.025 ethanol; New England Nuclear Products, Boston, Mass.) (0.025 ml) and calcium chloride solution (CaCl2.2H2 O ); 105.8 mg/10 […]) (0.025 ml) are added in that order. The tubes are vortexed and returned to the water bath for 30 minutes. The reaction is then terminated by the addition of HCl (0.8N, 0.025 ml).
Extraction and concentration of ^14 C-labeled 5-HETE is performed as follows. First, solution containing 2 parts ethyl acetate, 3 parts CH2 Cl2 and 0.01 ml unlabeled arachidonic acid is added (5.01 ml) to each tube. The tubes are capped and briefly vortexed. The contents of each tube is poured into a polypropylene column fitted with a porous polyethylene disc and Whatman phase separation filter paper. The organic phase is collected by gravity filtration into a conical centrifuge tube, While the aqueous phase is retained in the column by the phase separation paper. Each culture tube is rinsed once with the EtOAc:CH2 Cl2 solution (1.0 ml) and the wash added to the column. The organic phase is concentrated to (0.5 ml) using a Savant Speed Vac concentrator (Savant Instruments, Inc., Hicksville, N.Y.).
After concentration of the organic phase, the tubes are vortexed and stored covered on ice. An aliquot (0.01 ml) is then removed for liquid scintillation counting in a Beckman LS7500 Liquid Scintillation Counter (Beckman Instruments Corp., Fullerton, Calif.). Based on the count, the number of μl containing 1×10^5 cpm is calculated. This volume is applied to a silica gel covered glass plate in a 10 mm streak. The remaining fluid in the tube is measured via syringe and noted.
The TLC plate is placed in a chromatography chamber containing the following solvent system: CHCl3 :MeOH:HOAc:H2 O (v/v;90: 9:1:0.65). The plate is then air dried and counted on a Berthold Linear TLC Analyzer (Berthold Instruments, Inc., Pittsburgh, Pa.) for 30 minutes per lane if a dose response curve had been run, or for 5 min per lane if drug screening had been done. The integrated area of the 5-HETE band for each compound is converted to percent of control and analyzed. The percent inhibition at 100 μM compound concentration and the concentration (μM) which produces a 50% inhibition of 5-HETE synthesis (IC50), are determined for those compounds described in Examples 1-36, and are reported in Table 1 .

[4] = tested on: 5-HETE biosynthesized by glycogen-stimulated polymorphonuclear leucocytes (PMNs); test: as above; conditions: Oryctolagus cuniculus, Leucocyte, read-out: Percent Inhibition; for inhibition at 50 µM: **tested at 50 μM
[5] = added at peak of contraction after antigen, read-out: Postchallenge mean percent inhibition
[6] = preincubation before ovalbumin antigen, read-out: Prechallenge mean percent inhibition
[7] = added at peak of contraction after antigen, read-out: Postchallenge IC50
[8] = preincubation before ovalbumin antigen, read-out: Prechallenge IC50

Structure (SMILES)	inhibition at 20 µg/mL [1, 5]	inhibition at 20 µg/mL [1, 6]	inhibition at 100 µM ([3]; 5-HETE synthesis)	inhibition at 75 µM [2, 5]	inhibition at 75 µM [2, 6]	further results
CCCCCCCc1ccc(C(=O)CCCCC(=O)O)cc1 [Example 1, 5-(4-n-Heptylbenzoyl)pentanoic acid]	68%	81%	78%	–	–	IC50 [2, 7]: 48 µM; IC50 [2, 8]: 27 µM; IC50 [3]: 30 µM
CCCCCc1ccc(C(=O)CCCCC(=O)O)cc1 [Example 2, 5-(4-n-Pentylbenzoyl)pentanoic acid]	58%	81%	59%	–	–	IC50 [2, 7]: > 75 µM; IC50 [2, 8]: 35 µM; IC50 [3]: 70 µM
CCCCCc1ccc(C(=O)CCCC(=O)O)cc1 [Example 3, 4-(4-n-Pentylbenzoyl)butanoic acid]	47%	65%	0%	–	–	–
CCCCCc1ccc(C(=O)CCC(=O)O)cc1 [Example 4, 3-(4-n-Pentylbenzoyl)propanoic acid]	49%	65%	65%	–	–	–
CCCCCCCCCc1ccc(C(=O)CCCCC(=O)O)cc1 [Example 9, 5-(4-n-Nonylbenzoyl)pentanoic acid]	2%	33%	79%	–	–	–
CCCCCCCCCCc1ccc(C(=O)CCCCC(=O)O)cc1 [Example 10, 5-(4-n-Decylbenzoyl)pentanoic acid]	11%	7%	88%	–	–	–
CCCCCCCCCCCCCCc1ccc(C(=O)CCCCC(=O)O)cc1 [Example 11, 5-(4-n-Tetradecylbenzoyl)pentanoic acid]	14%	1%	76%	–	–	–
CCCCCCOc1ccc(C(=O)CCCCC(=O)O)cc1 [Example 12, 5-(4-n-Hexyloxybenzoyl)pentanoic acid]	18%	70%	75%	–	–	–
CCCCCCCc1ccc(C(=O)c2ccc(C(=O)O)cc2)cc1 [Example 14, 4-(4-n-Heptylbenzoyl)benzoic acid]	–	–	–	16%	44%	inhibition at 50 µM [4]: 87%
CCCCCCCc1ccc(C(=O)CCCCCC(=O)O)cc1 [Example 20, 6-(4-n-Heptylbenzoyl)hexanoic acid]	–	–	–	3%	57%	inhibition at 50 µM [4]: 60%
Cc1ccc(C(=O)CCCCC(=O)O)cc1 [Example 21, 5-(4-Methylbenzoyl)pentanoic acid]	11%	29%	–	–	–	inhibition at 10 µM ([3]; at 10 μM, 5-HETE synthesis, read-out: Percent Inhibition): 0%
O=C(O)CCCC(=O)c1ccccc1 [Example 22, 4-Benzoylbutanoic acid, reference compound]	11%	0%	–	–	–	inhibition at 1000 µM ([4]; at 1000 μM): 0%
COc1ccc(C(=O)c2cccc(C(=O)O)c2)c(O)c1 [Example 27, 3-(2-Hydroxy-4-methoxybenzoyl)benzoic acid]	–	–	31%	14%	58%	–
CCCCCCOc1ccc(C(=O)c2cccc(C(=O)O)c2)c(C)c1 [Example 29, 3-(4-n-Hexyloxy-2-methylbenzoyl)-benzoic acid]	–	–	88%	38%	86%	–
Cc1ccc(C(=O)c2cccc(C(=O)O)c2)c(O)c1 [Example 30, 3-(2-Hydroxy-4-methylbenzoyl)benzoic acid]	–	–	47%	6%	26%	–
CCCCOc1ccc(C(=O)CCCCC(=O)O)cc1 [Example 33, 5-(4-n-Butoxybenzoyl)pentanoic acid]	–	–	49%	29%	63%	–
CCCCCCCc1ccc(C(=O)CCCC(=O)O)cc1 [Example 34, 4-(4-n-Heptylbenzoyl)butanoic acid]	–	–	76%	39%	79%	IC50 [2, 8]: 14 µM
O=C(O)c1cccc(C(=O)c2ccc(C3CCCCC3)cc2)c1 [Example 35, 3-(4-Cyclohexylbenzoyl)benzoic acid]	–	–	63%	43%	66%	IC50 [2, 7]: > 75 µM; IC50 [2, 8]: 38 µM
